Laboratory results taken from patent US4820707A, “2,6-piperazinedione compounds” (ADIR Et Cie, priority 1986, dated 1989).

Tests used:
Type in all cases: in vivo
[1] = Inhibition of isolation-induced aggression in mice; conditions: Mus musculus, ip, read-out: Inhibitory ED50 (effective dose inhibiting 50% of the aggressive animals)
Excerpt: The compounds of general formula I inhibit the attacking behavior of mice rendered aggressive by isolation according to the method described by Yen, Stanger and Millman in Arch. Int. Pharmacodyn. 1959, 123, p. 179-185.

[2] = Anxiolytic activity by the Geller-Seifter test; conditions: rats, i.p., p<0.05
Procedure: The anxiolytic activity of the compounds of the present invention was also assessed in rats with the Geller-Seifter test described by Geller, Kulac and Seifter in Psychopharmacologia, 1962, 3, p. 374-375.
An increase related exclusively to the levels of the punished responses determines the existence of an authentic anxiolytic effect.

[3] = Anxiolytic activity by the four-plates test; conditions: mice; for change in vivo at 5 mg/kg: Mus musculus, ip, i.p., 5 mg.kg^-1, read-out: % increase in the responses (transitions)
Procedure: The anxiolytic activity of the compounds of the general formula I was investigated in mice according to the method of Aron Simon Larousse and Boissier described in Neuropharmacology (1971) 10 p. 459-469). After treatment of the animals by means of different doses of the compounds of the invention administered intraperitoneally or orally, the increase in the percentage of transitions during the exploration of the base of the test cage, in the presence of electric shocks, was assessed.

[4] = Anxiolytic activity by the "staircase" test; set-up: key to % variation in the steps climbed: NS: not significant; conditions: rats
Excerpt: The anxiolytic activity of the compounds of the invention was investigated in rats according to the method described by Thiebot, Soubrie and Boissier in J. Pharmacol. 1976, 7, (1), p. 87-102. In this test, behavior involving rearing movements is associated with a state of distress of the animal. The number of steps climbed represents the normal exploratory behavior of the rat introduced into the enclosure. Normally, an efficacious anxiolytic compound should decrease, during the test which lasts 3 minutes, the number of rearing movements without modifying the number of steps climbed, or on the contrary should increase this latter parameter.

[5] = Inhibition of aggression in isolated and bulbectomized rats
Procedure: The inhibition of aggression was assessed according to the method described by Vergnes and Karli in C.R. Soc. Biol. 1963, 157, p. 1061. The effect on the aggression is assessed in terms of the percentage of animals which became non-killers after treatment.

[6] = Anxiolytic activity by MacMillan's conflict test; conditions: rats, i.p., 2,5 mg.kg^-1, vs physiological saline
Excerpt: In these conditioning experiments which operate in the presence of a food reward, performed in rats according to the method described by MacMillan in Fed. Proceedings, 1975, 34, (9), p. 1870-1879, two parameters in the animal's behavioral responses are considered. The first parameter is the variation in the level of punished responses, in the presence of an electric shock, under the influence of the treatment in comparison with the level of punished responses under the influence of physiological saline. The second parameter is the variation in the level of unpunished responses, without an electric shock, under the influence of the same treatment, in comparison with the level of unpunished responses when physiological saline is administered. A specific anxiolytic effect is established when, after the administration of a substance, the level of only the punished responses is increased.

[7] = Inhibition of the active conditioned avoidance response in rats; conditions: i.p.
Excerpt: The results obtained with the compounds of general formula I during the various experiments employing the method described by Courvoisier et al. in Arch. Int. Pharmacodyn., 1953, 92, p. 305-361 and by Janssen et al. in Arzneim, Forsch, 1965, 15, p.

O=C1CN(Cc2ccccc2F)CC(=O)N1CCCN1CCN(c2cccc(C(F)(F)F)c2)CC1 [Example 1, 4-(2-Fluorobenzyl)-1-{3-[1-(3-trifluoromethylphenyl)-4-piperazinyl]propyl}-2,6-piperazinedione dimandelate]
ED50 [1]: 7.64 mg/kg | increase in the punished responses ([2]; 2.5 mg.kg^-1): 39% | change in vivo at 5 mg/kg [3]: 65% | % increase in the responses ([3]; p.o., 50 mg.kg^-1): 64% | % variation in the rearing movements ([4]; i.p., 10 mg.kg^-1): -39% | % variation in the steps climbed ([4]; i.p., 10 mg.kg^-1): NS | % variation in the rearing movements ([4]; i.p., 20 mg.kg^-1): -64% | % variation in the steps climbed ([4]; i.p., 20 mg.kg^-1): NS | % variation in the rearing movements ([4]; i.p., 2,5 mg.kg^-1): -20% | % variation in the steps climbed ([4]; i.p., 2,5 mg.kg^-1): NS | % of non-killer animals ([5]; i.p., 25 mg.kg^-1): 45% | % variation in the unpunished responses ([6]; NS (not significant)): +18% | % variation in the punished responses ([6]; S (significant)): +49%

O=C1CN(Cc2ccccc2F)CC(=O)N1CCCN1CCN(c2cccc(Cl)c2)CC1 [Example 2, 4-(2-Fluorobenzyl)-1-{3-8 1-(3-chlorophenyl)-4-piperazinyl]propyl}-2,6-piperazinedione dimandelate]
increase in the punished responses ([2]; 5.0 mg.kg^-1): 65%

O=C1CN(Cc2ccccc2)CC(=O)N1CCCN1CCN(c2ccc(F)cc2)CC1 [Example 9, 4-Benzyl-1-{3-[1-(4-fluorophenyl)-4-piperazinyl]propyl}-2,6-piperazinedioneoxalate]
ED50 [1]: 8.6 mg/kg | % of non-killer animals ([5]; i.p., 25 mg.kg^-1): 60%

Cc1ccccc1N1CCN(CCCN2C(=O)CN(Cc3ccccn3)CC2=O)CC1.Cl.Cl.Cl [Example 19, 4-(2-Pyridylmethyl)-1-{3-[1-(2-methylphenyl)-4-piperazinyl]propyl}-2,6-piperazinedione trihydrochloride]
ED50 [1]: 6.78 mg/kg | % ICAR (percentage inhibition of the conditioned avoidance response) ([7]; 20 mg.kg^-1): 26% | % ICAR (percentage inhibition of the conditioned avoidance response) ([7]; 40 mg.kg^-1): 73%

O=C(O)C(=O)O.O=C(O)C(=O)O.O=C1CN(Cc2ccccn2)CC(=O)N1CCCN1CCN(c2cccc(C(F)(F)F)c2)CC1 [Example 21, 4-(2-Pyridylmethyl)-1-{3-[1-(3-trifluoromethylphenyl)-4-piperazinyl]propyl}-2,6-piperazinedione dioxalate]
ED50 [1]: 11.1 mg/kg | change in vivo at 5 mg/kg [3]: 69% | % of non-killer animals ([5]; i.p., 12,5 mg.kg^-1): 73%
